From patent US10961236B2, “(S)-2-(1-cyclopropylethyl)-5-(4-methyl-2-((6-(2-oxopyrrolidin-1-yl)pyridin-2-yl)amino) thiazol-5-yl)-7-(methylsulfonyl)isoindolin-1-one as a phosphatidylinositol 3-kinase inhibitor” (AstraZeneca AB, priority 2016, dated 2021)

Experiments:
Type in all cases: biochemical
[1] = molecular target: recombinant human PI3Kα (6-His(p110-p85α)) (Homo sapiens (Human), UniProt P42336); test: Enzymatic activity assay for recombinant human PI3Kα (ADP-Glo); details: 1.2 nM PI3Kα, 20 μM ATP, 80 μM DiC8-PIP2, ADP-Glo
Sequence of recombinant human PI3Kα (6-His(p110-p85α)) (P42336 whole entry): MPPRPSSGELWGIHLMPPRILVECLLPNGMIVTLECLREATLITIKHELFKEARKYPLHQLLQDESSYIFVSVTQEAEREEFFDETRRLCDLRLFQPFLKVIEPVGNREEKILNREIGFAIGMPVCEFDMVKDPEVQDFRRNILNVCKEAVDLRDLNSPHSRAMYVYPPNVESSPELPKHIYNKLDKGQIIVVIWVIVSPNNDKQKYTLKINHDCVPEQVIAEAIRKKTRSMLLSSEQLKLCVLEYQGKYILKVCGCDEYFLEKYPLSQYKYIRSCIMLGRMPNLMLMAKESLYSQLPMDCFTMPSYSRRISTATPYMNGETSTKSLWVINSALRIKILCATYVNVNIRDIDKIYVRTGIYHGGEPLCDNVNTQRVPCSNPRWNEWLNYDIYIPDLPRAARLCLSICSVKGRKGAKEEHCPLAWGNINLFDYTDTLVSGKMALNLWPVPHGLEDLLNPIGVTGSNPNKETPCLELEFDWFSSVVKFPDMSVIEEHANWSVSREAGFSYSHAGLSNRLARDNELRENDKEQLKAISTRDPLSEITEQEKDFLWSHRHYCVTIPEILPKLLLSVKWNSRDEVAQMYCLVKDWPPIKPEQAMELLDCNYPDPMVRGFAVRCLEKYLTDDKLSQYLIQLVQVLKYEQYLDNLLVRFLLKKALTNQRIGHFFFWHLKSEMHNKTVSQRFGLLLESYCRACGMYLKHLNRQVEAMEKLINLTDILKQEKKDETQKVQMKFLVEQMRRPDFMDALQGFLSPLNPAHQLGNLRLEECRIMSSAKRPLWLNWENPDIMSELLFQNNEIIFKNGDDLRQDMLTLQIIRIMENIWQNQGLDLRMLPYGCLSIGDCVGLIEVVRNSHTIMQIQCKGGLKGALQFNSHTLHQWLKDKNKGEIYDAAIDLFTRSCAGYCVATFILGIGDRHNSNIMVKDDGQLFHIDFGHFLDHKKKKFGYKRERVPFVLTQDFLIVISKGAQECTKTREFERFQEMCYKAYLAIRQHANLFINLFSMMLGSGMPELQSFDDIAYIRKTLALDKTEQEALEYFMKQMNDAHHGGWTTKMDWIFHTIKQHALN
Sequence of recombinant human PI3Kα (6-His(p110-p85α)) (P27986 whole entry partner): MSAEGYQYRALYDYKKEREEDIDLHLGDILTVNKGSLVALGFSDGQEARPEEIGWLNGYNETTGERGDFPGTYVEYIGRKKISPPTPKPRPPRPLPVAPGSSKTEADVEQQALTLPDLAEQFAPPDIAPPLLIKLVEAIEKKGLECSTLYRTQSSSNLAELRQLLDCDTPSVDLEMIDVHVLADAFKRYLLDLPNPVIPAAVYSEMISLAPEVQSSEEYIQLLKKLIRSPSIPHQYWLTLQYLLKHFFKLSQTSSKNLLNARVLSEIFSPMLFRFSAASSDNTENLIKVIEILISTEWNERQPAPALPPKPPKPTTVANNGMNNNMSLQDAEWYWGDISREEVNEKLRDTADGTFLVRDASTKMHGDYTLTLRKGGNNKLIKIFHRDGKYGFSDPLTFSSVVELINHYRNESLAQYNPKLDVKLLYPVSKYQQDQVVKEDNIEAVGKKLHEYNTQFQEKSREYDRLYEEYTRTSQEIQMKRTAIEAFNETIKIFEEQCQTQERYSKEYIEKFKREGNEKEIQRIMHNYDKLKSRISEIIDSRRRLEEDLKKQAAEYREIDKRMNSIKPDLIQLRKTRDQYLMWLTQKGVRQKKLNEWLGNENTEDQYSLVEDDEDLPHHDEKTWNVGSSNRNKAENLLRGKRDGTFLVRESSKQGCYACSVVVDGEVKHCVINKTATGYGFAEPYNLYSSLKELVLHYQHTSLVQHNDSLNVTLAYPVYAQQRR
In short: (§1)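 ADP-Glo luminescence after DiC8-PIP2 phosphorylation at RT: 80 μM lipid substrate, 20 μM ATP, 1.2 nM enzyme (0.6 nM for δ) in Tris pH 7.4 with MgCl2, DTT, CHAPS. Compounds pre-incubated 15 min with enzyme, then 60 min reaction; DMSO ≤1%.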

[2] = molecular target: recombinant human PI3Kδ (6-His(p110-p85α)) (Homo sapiens (Human), UniProt O00329); test: Enzymatic activity assay for recombinant human PI3Kδ (ADP-Glo); details: 0.6 nM PI3Kδ, 20 μM ATP, 80 μM DiC8-PIP2, ADP-Glo
Sequence of recombinant human PI3Kδ (6-His(p110-p85α)) (O00329 whole entry): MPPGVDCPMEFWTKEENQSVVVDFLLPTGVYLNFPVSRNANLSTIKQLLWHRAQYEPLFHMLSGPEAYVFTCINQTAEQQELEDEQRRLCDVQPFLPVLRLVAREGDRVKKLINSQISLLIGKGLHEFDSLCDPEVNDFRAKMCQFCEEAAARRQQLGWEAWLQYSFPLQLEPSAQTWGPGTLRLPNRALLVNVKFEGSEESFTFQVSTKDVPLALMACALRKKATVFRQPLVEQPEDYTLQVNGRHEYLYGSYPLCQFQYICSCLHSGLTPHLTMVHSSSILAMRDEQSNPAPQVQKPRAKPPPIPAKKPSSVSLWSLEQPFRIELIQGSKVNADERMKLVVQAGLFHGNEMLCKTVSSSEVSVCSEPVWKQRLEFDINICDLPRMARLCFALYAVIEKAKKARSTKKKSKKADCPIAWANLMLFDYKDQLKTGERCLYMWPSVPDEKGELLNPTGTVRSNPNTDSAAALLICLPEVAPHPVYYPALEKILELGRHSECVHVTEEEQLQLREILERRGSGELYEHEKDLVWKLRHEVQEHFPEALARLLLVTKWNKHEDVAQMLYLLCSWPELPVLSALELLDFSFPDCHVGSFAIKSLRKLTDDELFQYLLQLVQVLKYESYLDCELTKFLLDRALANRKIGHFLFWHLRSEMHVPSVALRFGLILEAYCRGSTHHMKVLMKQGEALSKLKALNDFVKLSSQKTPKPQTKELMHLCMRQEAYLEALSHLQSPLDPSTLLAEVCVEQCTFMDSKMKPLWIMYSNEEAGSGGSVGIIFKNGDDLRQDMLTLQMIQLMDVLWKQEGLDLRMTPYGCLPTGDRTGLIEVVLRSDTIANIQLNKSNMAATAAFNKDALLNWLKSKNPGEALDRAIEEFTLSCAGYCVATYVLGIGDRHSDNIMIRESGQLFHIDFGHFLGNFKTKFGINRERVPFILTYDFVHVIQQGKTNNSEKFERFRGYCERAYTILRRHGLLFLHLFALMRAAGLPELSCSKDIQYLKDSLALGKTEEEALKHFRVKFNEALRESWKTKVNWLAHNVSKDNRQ
Sequence of recombinant human PI3Kδ (6-His(p110-p85α)) (P27986 whole entry partner): as the sequence (P27986 whole entry partner) above
In short: (§2)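 ADP-Glo luminescence after DiC8-PIP2 (80 μM) phosphorylation with 20 μM ATP in 50 mM Tris pH 7.4, 3 mM MgCl2, 2.1 mM DTT, 0.05% CHAPS at room temperature. Enzyme 1.2 nM PI3Kγ or 0.6 nM PI3Kδ; inhibitors pre-incubated 15 min, then 60 min reaction.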

[3] = molecular target: recombinant human PI3Kβ (6-His(p110-p85α)) (Homo sapiens (Human), UniProt P42338); test: Enzymatic activity assay for recombinant human PI3Kβ (ADP-Glo); details: 1.2 nM PI3Kβ, 20 μM ATP, 80 μM DiC8-PIP2, ADP-Glo
Sequence of recombinant human PI3Kβ (6-His(p110-p85α)) (P42338 whole entry): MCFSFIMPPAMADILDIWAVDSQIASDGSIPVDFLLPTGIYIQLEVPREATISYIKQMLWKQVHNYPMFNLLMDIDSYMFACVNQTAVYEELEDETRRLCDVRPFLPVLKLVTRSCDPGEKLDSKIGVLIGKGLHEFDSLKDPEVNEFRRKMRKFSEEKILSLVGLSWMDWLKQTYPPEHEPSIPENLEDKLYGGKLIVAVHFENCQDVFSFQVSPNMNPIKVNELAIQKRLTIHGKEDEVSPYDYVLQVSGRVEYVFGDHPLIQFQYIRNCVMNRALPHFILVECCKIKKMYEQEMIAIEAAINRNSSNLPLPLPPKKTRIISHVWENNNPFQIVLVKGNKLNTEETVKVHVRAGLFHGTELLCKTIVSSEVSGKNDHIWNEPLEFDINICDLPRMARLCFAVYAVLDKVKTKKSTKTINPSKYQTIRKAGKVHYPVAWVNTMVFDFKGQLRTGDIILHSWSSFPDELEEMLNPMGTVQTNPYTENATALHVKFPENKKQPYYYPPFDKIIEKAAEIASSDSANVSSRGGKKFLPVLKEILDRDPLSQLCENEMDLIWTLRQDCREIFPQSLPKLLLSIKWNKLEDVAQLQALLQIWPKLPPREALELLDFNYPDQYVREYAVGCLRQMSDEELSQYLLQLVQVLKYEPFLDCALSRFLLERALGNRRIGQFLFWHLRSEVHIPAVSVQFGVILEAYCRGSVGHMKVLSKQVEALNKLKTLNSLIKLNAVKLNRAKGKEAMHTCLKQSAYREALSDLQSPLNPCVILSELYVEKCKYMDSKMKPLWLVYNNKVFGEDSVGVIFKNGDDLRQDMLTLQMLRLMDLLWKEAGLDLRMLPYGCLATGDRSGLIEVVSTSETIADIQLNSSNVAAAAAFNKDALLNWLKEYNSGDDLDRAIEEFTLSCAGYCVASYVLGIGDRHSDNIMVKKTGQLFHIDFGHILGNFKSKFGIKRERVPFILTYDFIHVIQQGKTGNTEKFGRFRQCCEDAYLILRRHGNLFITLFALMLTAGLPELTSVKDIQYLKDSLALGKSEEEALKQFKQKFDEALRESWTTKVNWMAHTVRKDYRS
Sequence of recombinant human PI3Kβ (6-His(p110-p85α)) (P27986 whole entry partner): as the sequence (P27986 whole entry partner) above
In short: as §1

[4] = molecular target: recombinant human PI3Kγ ((aa144-1102)-6His) (Homo sapiens (Human), UniProt P48736); test: Enzymatic activity assay for recombinant human PI3Kγ (ADP-Glo); details: 1.2 nM PI3Kγ, 20 μM ATP, 80 μM DiC8-PIP2, ADP-Glo
Sequence of recombinant human PI3Kγ ((aa144-1102)-6His) (P48736 144-1102): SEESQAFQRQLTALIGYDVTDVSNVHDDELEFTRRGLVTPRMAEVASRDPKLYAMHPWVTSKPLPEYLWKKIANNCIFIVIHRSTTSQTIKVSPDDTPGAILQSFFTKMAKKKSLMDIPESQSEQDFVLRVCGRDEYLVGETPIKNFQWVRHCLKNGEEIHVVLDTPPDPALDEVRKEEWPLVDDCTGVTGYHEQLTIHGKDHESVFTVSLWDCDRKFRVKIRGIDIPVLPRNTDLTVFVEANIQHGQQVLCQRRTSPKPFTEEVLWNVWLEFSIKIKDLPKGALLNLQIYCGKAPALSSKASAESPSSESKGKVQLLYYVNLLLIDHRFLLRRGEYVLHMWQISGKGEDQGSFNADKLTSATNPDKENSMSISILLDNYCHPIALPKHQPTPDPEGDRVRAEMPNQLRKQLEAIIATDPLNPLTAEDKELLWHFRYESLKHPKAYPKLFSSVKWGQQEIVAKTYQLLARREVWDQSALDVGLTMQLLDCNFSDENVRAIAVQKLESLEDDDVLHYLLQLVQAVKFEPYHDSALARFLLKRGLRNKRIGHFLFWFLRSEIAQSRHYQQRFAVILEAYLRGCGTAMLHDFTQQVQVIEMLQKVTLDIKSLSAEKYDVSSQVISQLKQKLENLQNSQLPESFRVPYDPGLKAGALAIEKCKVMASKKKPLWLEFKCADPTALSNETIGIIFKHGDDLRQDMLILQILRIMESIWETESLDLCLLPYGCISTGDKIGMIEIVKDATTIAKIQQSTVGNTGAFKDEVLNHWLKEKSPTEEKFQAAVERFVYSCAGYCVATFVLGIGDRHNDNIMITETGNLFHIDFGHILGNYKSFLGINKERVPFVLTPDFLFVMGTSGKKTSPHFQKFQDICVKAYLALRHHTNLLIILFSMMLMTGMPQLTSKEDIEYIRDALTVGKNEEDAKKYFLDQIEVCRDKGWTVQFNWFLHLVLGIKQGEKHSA
In short: as §2

Structure (SMILES) | IC50 [1] | IC50 [2] | IC50 [3] | IC50 [4]
CNS(=O)(=O)c1cc(-c2sc(Nc3cccc(N4CCNC4=O)n3)nc2C)cc2c1C(=O)N([C@@H](C)C(F)(F)F)C2 [Example 63, N-Methyl-6-(4-methyl-2-{[6-(2-oxoimidazolidin-1-yl)pyridin-2-yl]amino}-1,3-thiazol-5-yl)-3-oxo-2-[(2S)-1,1,1-trifluoropropan-2-yl]-2,3-dihydro-1H-isoindole-4-sulfonamide] | 32 nM | 0.7 nM | 274 nM | 1.2 nM
CC(=O)Nc1cccc(Nc2nc(C)c(-c3cc4c(c(S(C)(=O)=O)c3)C(=O)N([C@@H](C)C3CC3)C4)s2)n1 [Example 2, N-{6-[(5-{2-[(1S)-1-Cyclopropylethyl]-7-(methylsulfonyl)-1-oxo-2,3-dihydro-1H-isoindol-5-yl}-4-methyl-1,3-thiazol-2-yl)amino]pyridin-2-yl}acetamide] | 263 nM | 19.6 nM | 3730 nM | 0.9 nM
CCNS(=O)(=O)c1cc(-c2sc(Nc3cccc(N(C)C(=O)COC)n3)nc2C)cc2c1C(=O)N([C@@H](C)C1CC1)C2 [Example 26, N-{6-[(5-{2-[(1S)-1-Cyclopropylethyl]-7-(ethylsulfamoyl)-1-oxo-2,3-dihydro-1H-isoindol-5-yl}-4-methyl-1,3-thiazol-2-yl)amino]pyridin-2-yl}-2-methoxy-N-methylacetamide] | 110 nM | 0.5 nM | 562 nM | 1.1 nM
CNS(=O)(=O)c1cc(-c2sc(Nc3cccc(N4C[C@@H](C)NCC4=O)n3)nc2C)cc2c1C(=O)N([C@@H](C)C1CC1)C2 [Example 45, 2-[(1S)-1-Cyclopropylethyl]-N-methyl-6-[4-methyl-2-({6-[(5R)-5-methyl-2-oxopiperazin-1-yl]pyridin-2-yl}amino)-1,3-thiazol-5-yl]-3-oxo-2,3-dihydro-1H-isoindole-4-sulfonamide] | 33 nM | 1 nM | 257 nM | 0.8 nM
CCN(C(=O)COC)c1cccc(Nc2nc(C)c(-c3cc4c(c(S(=O)(=O)NC)c3)C(=O)N([C@@H](C)C3CC3)C4)s2)n1 [Example 18, N-{6-[(5-{2-[(1S)-1-Cyclopropylethyl]-7-(methylsulfamoyl)-1-oxo-2,3-dihydro-1H-isoindol-5-yl}-4-methyl-1,3-thiazol-2-yl)amino]pyridin-2-yl}-N-ethyl-2-methoxyacetamide] | 25 nM | 0.3 nM | 231 nM | 0.8 nM
Cc1nc(Nc2cccc(N3CCOC3=O)n2)sc1-c1cc2c(c(S(C)(=O)=O)c1)C(=O)N([C@@H](C)C(F)(F)F)C2 [Example 12, 5-(4-Methyl-2-{[6-(2-oxo-1,3-oxazolidin-3-yl)pyridin-2-yl]amino}-1,3-thiazol-5-yl)-7-(methylsulfonyl)-2-[(2S)-1,1,1-trifluoropropan-2-yl]-2,3-dihydro-1H-isoindol-1-one] | 300 nM | 1.6 nM | 4100 nM | 0.9 nM
